Patent US8877778B2, “Benzofurane compounds” (Hoffmann-La Roche Inc., priority 2010, dated 2014)

What was measured:
[1] = biological target: human D3 receptor (Homo sapiens (Human), UniProt P35462); assay: Radioligand binding ([3H]-spiperone) to cloned receptors expressed in HEK-293 EBNA cells; conditions: HEK293 EBNA cell membranes expressing human D3
How it was run: (§1)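 Membranes from transiently transfected HEK293 EBNA cells incubated 1 h at RT with ten compound concentrations (10 μM–0.1 nM). D2/D3: [3H]-spiperone ~0.7/0.5 nM, Tris–NaCl–Mg/Ca buffer pH 7.4; 5-HT2A: [3H]-ketanserin 1.1 nM, Tris–MgCl2–EGTA pH 7.4.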

[2] = biological target: human D2 receptor (Homo sapiens (Human), UniProt P14416); assay: as above; conditions: HEK293 EBNA cell membranes expressing human D2
Chain of human D2 receptor (P14416 whole entry): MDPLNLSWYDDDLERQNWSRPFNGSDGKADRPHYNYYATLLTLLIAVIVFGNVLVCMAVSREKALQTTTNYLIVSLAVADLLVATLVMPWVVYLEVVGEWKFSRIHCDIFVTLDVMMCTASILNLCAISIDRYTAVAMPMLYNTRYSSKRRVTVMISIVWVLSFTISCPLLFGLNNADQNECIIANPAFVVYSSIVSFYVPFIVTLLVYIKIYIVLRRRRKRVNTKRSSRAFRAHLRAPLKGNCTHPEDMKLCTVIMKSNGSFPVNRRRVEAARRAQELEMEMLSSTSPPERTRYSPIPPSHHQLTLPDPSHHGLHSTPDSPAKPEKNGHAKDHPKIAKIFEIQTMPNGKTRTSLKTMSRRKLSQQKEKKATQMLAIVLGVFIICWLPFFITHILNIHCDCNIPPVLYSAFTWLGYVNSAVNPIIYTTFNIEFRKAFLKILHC
How it was run: as §1

[3] = biological target: human 5-HT2A receptor (Homo sapiens (Human), UniProt P28223); assay: Radioligand binding ([3H]-ketanserin) to cloned receptors expressed in HEK-293 EBNA cells; conditions: HEK293 EBNA cell membranes expressing human 5-HT2A
Chain of human 5-HT2A receptor (P28223 whole entry): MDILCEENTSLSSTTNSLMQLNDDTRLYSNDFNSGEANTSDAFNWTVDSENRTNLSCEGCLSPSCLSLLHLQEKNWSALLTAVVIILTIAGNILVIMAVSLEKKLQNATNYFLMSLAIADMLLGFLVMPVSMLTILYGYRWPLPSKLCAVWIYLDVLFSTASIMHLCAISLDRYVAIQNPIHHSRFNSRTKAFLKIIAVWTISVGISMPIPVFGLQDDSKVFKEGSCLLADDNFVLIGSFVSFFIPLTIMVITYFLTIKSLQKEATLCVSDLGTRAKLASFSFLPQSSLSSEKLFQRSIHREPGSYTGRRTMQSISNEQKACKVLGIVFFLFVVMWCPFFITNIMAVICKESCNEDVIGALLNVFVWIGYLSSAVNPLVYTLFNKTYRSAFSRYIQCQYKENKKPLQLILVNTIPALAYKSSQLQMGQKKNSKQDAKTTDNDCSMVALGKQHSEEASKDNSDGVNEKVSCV
How it was run: as §1

Chain of human D3 receptor (P35462 whole entry): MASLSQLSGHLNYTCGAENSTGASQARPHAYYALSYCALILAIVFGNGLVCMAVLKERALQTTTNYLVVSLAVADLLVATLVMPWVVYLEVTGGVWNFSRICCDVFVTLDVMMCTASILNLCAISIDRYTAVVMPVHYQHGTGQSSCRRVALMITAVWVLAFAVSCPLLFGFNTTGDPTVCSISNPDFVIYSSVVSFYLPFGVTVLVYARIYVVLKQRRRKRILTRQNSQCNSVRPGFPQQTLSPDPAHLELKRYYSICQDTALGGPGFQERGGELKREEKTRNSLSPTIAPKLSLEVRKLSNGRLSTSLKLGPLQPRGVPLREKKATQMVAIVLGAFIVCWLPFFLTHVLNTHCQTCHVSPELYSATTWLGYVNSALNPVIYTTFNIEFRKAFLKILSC

## COCC(=O)N[C@H]1CC[C@H](CCN2CCC(c3cccc4c3CCO4)CC2)CC1 [Example 14, trans-N-(4-{2-[4-(2,3-Dihydro-benzofuran-4-yl)-piperidin-1-yl]-ethyl}-cyclohexyl)-2-methoxy-acetamide]
other
  melting point: 156 °C
[1]
  Ki: 22.7 nM
[2]
  Ki: 671 nM
[3]
  Ki: 27.7 nM

## CC(C)C(=O)N[C@H]1CC[C@H](CCN2CCC(c3cccc4c3CCO4)CC2)CC1 [Example 23, trans-N-(4-{2-[4-(2,3-Dihydro-benzofuran-4-yl)-piperidin-1-yl]-ethyl}-cyclohexyl)-isobutyramide]
other
  melting point: 212 °C
[1]
  Ki: 8 nM
[2]
  Ki: 285 nM
[3]
  Ki: 19.9 nM

## O=C(N[C@H]1CC[C@H](CCN2CCC(c3cccc4c3CCO4)CC2)CC1)c1ccc(N2CCOCC2)cc1 [Example 33, trans-N-(4-{2-[4-(2,3-Dihydro-benzofuran-4-yl)-piperidin-1-yl]-ethyl}-cyclohexyl)-4-morpholin-4-yl-benzamide]
other
  melting point: 247 °C
[1]
  Ki: 10.5 nM
[2]
  Ki: 128 nM
[3]
  Ki: 17.6 nM

## CCCCC(=O)N[C@H]1CC[C@H](CCN2CCC(c3cccc4c3CCO4)CC2)CC1 [Example 76, Pentanoic acid trans-(4-{2-[4-(2,3-dihydro-benzofuran-4-yl)-piperidin-1-yl]-ethyl}-cyclohexyl)-amide]
other
  melting point: 186 °C
[1]
  Ki: 4.57 nM
[2]
  Ki: 411 nM
[3]
  Ki: 103 nM

## Cc1cc(C(=O)N[C@H]2CC[C@H](CCN3CCC(c4cccc5c4CCO5)CC3)CC2)on1 [Example 41, 3-Methyl-isoxazole-5-carboxylic acid trans-(4-{2-[4-(2,3-dihydro-benzofuran-4-yl)-piperidin-1-yl]-ethyl}-cyclohexyl)-amide]
other
  melting point: 215 °C
[1]
  Ki: 10.8 nM
[2]
  Ki: 124 nM
[3]
  Ki: 36.4 nM

## CC#CC(=O)N[C@H]1CC[C@H](CCN2CCC(c3cccc4c3CCO4)CC2)CC1 [Example 86, But-2-ynoic acid trans-(4-{2-[4-(2,3-dihydro-benzofuran-4-yl)-piperidin-1-yl]-ethyl}-cyclohexyl)-amide]
other
  melting point: 195 °C
[1]
  Ki: 7.3 nM
[2]
  Ki: 118 nM
[3]
  Ki: 45.9 nM

## O=C(N[C@H]1CC[C@H](CCN2CCC(c3cccc4c3CCO4)CC2)CC1)c1ccc(Cl)cc1Cl [Example 89, trans-2,4-Dichloro-N-(4-{2-[4-(2,3-dihydro-benzofuran-4-yl)-piperidin-1-yl]-ethyl}-cyclohexyl)-benzamide]
other
  melting point: 188 °C
[1]
  Ki: 8.28 nM
[2]
  Ki: 234 nM
[3]
  Ki: 31.5 nM

## Cc1ccc(C(=O)N[C@H]2CC[C@H](CCN3CCC(c4cccc5c4CCO5)CC3)CC2)cn1 [Example 42, trans-N-(4-{2-[4-(2,3-Dihydro-benzofuran-4-yl)-piperidin-1-yl]-ethyl}-cyclohexyl)-6-methyl-nicotinamide]
other
  melting point: 202 °C
[1]
  Ki: 10.2 nM
[2]
  Ki: 151 nM
[3]
  Ki: 25.4 nM

## COCC(=O)N[C@H]1CC[C@H](CCN2CCC(c3cccc4occc34)CC2)CC1 [Example 10, trans-N-{4-[2-(4-Benzofuran-4-yl-piperidin-1-yl)-ethyl]-cyclohexyl}-2-methoxy-acetamide]
other
  melting point: 124 °C
[1]
  Ki: 10.5 nM
[2]
  Ki: 256 nM
[3]
  Ki: 4.2 nM

## CC(C)(C)c1ccc(C(=O)N[C@H]2CC[C@H](CCN3CCC(c4cccc5c4CCO5)CC3)CC2)cc1 [Example 71, trans-4-tert-Butyl-N-(4-{2-[4-(2,3-dihydro-benzofuran-4-yl)-piperidin-1-yl]-ethyl}-cyclohexyl)-benzamide]
other
  melting point: 208 °C
[1]
  Ki: 13.6 nM
[2]
  D2 Ki: inactive
[3]
  Ki: 28.6 nM

## CC(C)(C)CC(=O)N[C@H]1CC[C@H](CCN2CCC(c3cccc4c3CCO4)CC2)CC1 [Example 59, trans-N-(4-{2-[4-(2,3-Dihydro-benzofuran-4-yl)-piperidin-1-yl]ethyl}-cyclohexyl)-3,3-dimethyl-butyramide]
other
  melting point: 193 °C
[1]
  Ki: 6 nM
[2]
  Ki: 394 nM
[3]
  Ki: 54.1 nM
